Results as given in article PMC8536124 (International Journal of Molecular Sciences, 2021).
Read-outs that look alike come from different tables or passages of the source.

What was measured:
Type in all cases: cell-based, human
LOX IMVI = assay: NCI-60 screening (SRB); conditions: LOX IMVI, five-dose
UO-31 = assay: NCI-60 screening (SRB); conditions: five-dose
A498 = assay: NCI-60 screening (SRB); conditions: A498, five-dose
NCI-H460 = assay: NCI-60 screening (SRB); conditions: five-dose
NCI-H522 = assay: NCI-60 screening (SRB); conditions: five-dose
NCI-H322M = assay: NCI-60 screening (SRB); conditions: five-dose
OVCAR-5 = assay: NCI-60 screening (SRB); conditions: five-dose
RXF 393 = assay: NCI-60 screening (SRB); conditions: five-dose
HCC-2998 = assay: NCI-60 screening (SRB); conditions: five-dose
BT-549 = assay: NCI-60 screening (SRB); conditions: five-dose
OVCAR-3 = assay: NCI-60 screening (SRB); conditions: five-dose
TK-10 = assay: NCI-60 screening (SRB); conditions: five-dose
HT29 = assay: NCI-60 screening (SRB)
NCI-H226 = assay: NCI-60 screening (SRB); conditions: five-dose
[1] = tested on: NCI-60 cancer cell line panel; assay: NCI-60 screening (SRB), full panel; conditions: for activity at 10 µM: 60 cell lines, 48 h
Excerpt: The experimental data allow the assessment of the cytostatic effect, indicated by growth inhibition values ranging between 0 and 100, as well as of the cytotoxic effect, indicated by negative values.
The mean GI50 (molar concentration of the compound that inhibits 50% net cell growth), TGI (molar concentration of the compound leading to the total inhibition), and LC50 (molar concentration of the compound leading to 50% net cell death (presented in negative logarithm)) values across each cell line are shown in Table 2.
The selectivity index (SI), calculated as the ratio between the full panel MG_MID60 (μM) of compounds 4, 6, and 9 by their respective subpanels MG_MID of the cell line (μM), was introduced as a quantification tool for the selectivity of each compound in terms of anticancer effect (Table 3).
Primary anticancer assays were performed according to the NCI protocol, as described elsewhere (see e.g., http://dtp.nci.nih.gov accessed on 1 November 2018). The compounds were added at a single concentration, and the cell cultures were incubated for 48 h. The end point determinations were made with a protein-binding dye, sulforhodamine B (SRB). […] The percentage of growth was evaluated spectrophotometrically versus controls not treated with test agents after 48 h exposure and using SRB protein assay to estimate cell viability or growth. Three antitumor activity dose-response parameters were calculated for each cell line. Furthermore, mean graph midpoints (MG_MID) were calculated for each of the parameters, giving an average activity parameter over all cell lines for the tested compound. For the MG_MID calculation, insensitive cell lines were included with the highest concentration tested.

RPMI-8226 = assay: NCI-60 screening (SRB); conditions: five-dose
MDA-MB-435 = assay: NCI-60 screening (SRB); conditions: five-dose
SK-MEL-28 = assay: NCI-60 screening (SRB); conditions: five-dose
UACC-257 = assay: NCI-60 screening (SRB); conditions: five-dose
HL-60(TB) = assay: NCI-60 screening (SRB); conditions: HL-60(TB), five-dose
A549/ATCC = assay: NCI-60 screening (SRB); conditions: five-dose
ACHN = assay: NCI-60 screening (SRB); conditions: five-dose
SF-268 = assay: NCI-60 screening (SRB); conditions: five-dose
IGROV1 = assay: NCI-60 screening (SRB)
COLO 205 = assay: NCI-60 screening (SRB); conditions: five-dose
HCT-116 = assay: NCI-60 screening (SRB); conditions: five-dose
[2] = Homo sapiens, read-out: LC50 (the source's name)

CCN1CCN(C(=O)[C@]23CCC(C)(C)C[C@H]2C2=CC[C@@H]4[C@@]5(C)C/C(=C/c6cccnc6)C(=O)C(C)(C)[C@@H]5CC[C@@]4(C)[C@]2(C)CC3)CC1 [Compound 6]
GI50 (LOX IMVI; Homo sapiens): 1.36 µM
CC50 (LOX IMVI; [2]): 5.45 µM
TGI (LOX IMVI): 2.73 µM
GI50 (UO-31; Homo sapiens): 1.35 µM
CC50 (UO-31; [2]): 5.32 µM
TGI (UO-31): 2.67 µM
TGI (A498): 3.53 µM
GI50 (A498; Homo sapiens): 1.66 µM
CC50 (A498; [2]): 7.48 µM
GI50 (NCI-H460; Homo sapiens): 1.39 µM
CC50 (NCI-H460; [2]): 6.2 µM
TGI (NCI-H460): 2.93 µM
GI50 (NCI-H522; Homo sapiens): 1.61 µM
CC50 (NCI-H522; [2]): 8.73 µM
TGI (NCI-H522): 3.75 µM
GI50 (NCI-H322M; Homo sapiens): 2.87 µM
CC50 (NCI-H322M; [2]): 33.9 µM
TGI (NCI-H322M): 9.25 µM
GI50 (OVCAR-5; Homo sapiens): 1.56 µM
CC50 (OVCAR-5; [2]): 7.19 µM
TGI (OVCAR-5): 3.35 µM
GI50 (RXF 393; Homo sapiens): 1.42 µM
CC50 (RXF 393; [2]): 5.41 µM
TGI (RXF 393): 2.77 µM
GI50 (HCC-2998; Homo sapiens): 1.58 µM
CC50 (HCC-2998; [2]): 6.17 µM
TGI (HCC-2998): 3.12 µM
GI50 (BT-549; Homo sapiens): 1.47 µM
CC50 (BT-549; [2]): 5.66 µM
TGI (BT-549): 2.88 µM
GI50 (OVCAR-3; Homo sapiens): 1.51 µM
CC50 (OVCAR-3; [2]): 5.73 µM
TGI (OVCAR-3): 2.95 µM
GI50 (TK-10; Homo sapiens): 3.86 µM
CC50 (TK-10; [2]): 54.1 µM
TGI (TK-10): 15.4 µM
GI50 (HT29; Homo sapiens, HT-29, five-dose): 1.71 µM
CC50 (HT29; Homo sapiens, HT-29, five-dose, read-out: LC50 (the source's name)): 44.5 µM
TGI (HT29; five-dose): 4.67 µM
GI50 (NCI-H226; Homo sapiens): 1.76 µM
TGI (NCI-H226): 3.80 µM
Positive Cytostatic Effect (cell lines with percent growth 0 to 50 / total) ([1]; 1 dose 10 µM): 30/60
Positive Cytotoxic Effect (cell lines with percent growth <0 / total) ([1]; 1 dose 10 µM): 4/60
GI50 ([1]; Homo sapiens, five-dose, bound, read-out: GI50 against all human tumor cells): < 4 µM
GI50 ([1]; Homo sapiens, mean graph midpoint, full panel, five-dose, read-out: GI50 MG_MID60): 1.52 µM
CC50 ([1]; Homo sapiens, mean graph midpoint, full panel, five-dose, read-out: LC50 MG_MID60): 32.4 µM
activity at 10 µM ([1]; Homo sapiens, 1 dose 10 µM, read-out: Mean Growth, %): 23.4%
activity at 10 µM ([1]; Homo sapiens, 1 dose 10 µM, read-out: Range of Growth, %): -91 to 83.8%
TGI MG_MID60 ([1]; mean graph midpoint, full panel, five-dose): 6.29 µM
GI50 ([1]; mean graph midpoint, full panel, five-dose, read-out: GI50 MG_MID60): 1.53 µM
selectivity class ([1]; toward some individual cell lines at the LC50 level): moderate selectivity (Ratios between 3 and 6 are indicators of moderate selectivity)
GI50 (RPMI-8226; Homo sapiens): 1.03 µM
CC50 (RPMI-8226; [2]): > 100 µM
TGI (RPMI-8226): 5.20 µM
GI50 (MDA-MB-435; Homo sapiens): 1.48 µM
CC50 (MDA-MB-435; [2]): 6.52 µM
TGI (MDA-MB-435): 3.11 µM
GI50 (SK-MEL-28; Homo sapiens): 1.48 µM
CC50 (SK-MEL-28; [2]): 5.41 µM
TGI (SK-MEL-28): 2.83 µM
GI50 (UACC-257; Homo sapiens): 1.61 µM
CC50 (UACC-257; [2]): 33.8 µM
TGI (UACC-257): 4.29 µM
TGI (HL-60(TB)): 9.02 µM
GI50 (HL-60(TB); Homo sapiens): 2.1 µM
CC50 (HL-60(TB); [2]): > 100 µM
GI50 (A549/ATCC; Homo sapiens): 2.62 µM
CC50 (A549/ATCC; [2]): > 100 µM
TGI (A549/ATCC): 13.4 µM
GI50 (ACHN; Homo sapiens): 2.6 µM
LC50 (ACHN; Homo sapiens): 32.4 µM
TGI (ACHN): 10.5 µM
GI50 (SF-268; Homo sapiens): 1.59 µM
CC50 (SF-268; [2]): 85.7 µM
TGI (SF-268): 4.79 µM
GI50 (IGROV1; Homo sapiens, IGROV-1, five-dose): 1.91 µM
CC50 (IGROV1; Homo sapiens, IGROV-1, five-dose, read-out: LC50 (the source's name)): 9.1 µM
TGI (IGROV1; five-dose): 4.16 µM
GI50 (COLO 205; Homo sapiens): 1.89 µM
CC50 (COLO 205; [2]): > 100 µM
TGI (COLO 205): 4.74 µM
GI50 (HCT-116; Homo sapiens): 1.01 µM
CC50 (HCT-116; [2]): 4.89 µM
TGI (HCT-116): 2.22 µM
